Test results reported in US8084481B2, “Substituted arylimidazolone and triazolone as inhibitors of vasopressin receptors” (Bayer Pharma Aktiengesellschaft, priority 2006, dated 2011).

How the values were obtained:
human V1a receptor = molecular target: T1, human V1a receptor (Homo sapiens, UniProt P37288); test: Cellular in vitro test for determination of the vasopressin receptor activity (aequorin luminescence, CHO cells), human V1a; assay type: cell-based; details: cell line transfected with the human V1a receptor, antagonism of [Arg8]-vasopressin, read-out: IC50 hV1a
T1 construct: expressed in transfected cells; host or cells: CHO K1 (ATCC), constitutively expressing a modified aequorin
From the text: (§1) B-1. Cellular In Vitro Test for Determination of the Vasopressin Receptor Activity
(§2) The identification of agonists and antagonists of the V1a- and V2-vasopressin receptors in man and the rat and the quantification of the activity of the compounds according to the invention are effected by means of recombinant cell lines. These cells are originally derived from the ovarian epithelial cells of the hamster (Chinese Hamster Ovary, CHO K1, ATCC: American Type Culture Collection, Manassas, Va. 20108, USA). The test cell lines constitutively express a modified form of the calcium-sensitive photoprotein aequorin, which after reconstitution with the cofactor coelenterazine emits light on an increase in the free calcium concentrations [Rizzuto R, Simpson A W, Brini M, Pozzan T, Nature 358, 325-327 (1992)]. In addition, the cells are stably transfected with human or rat V1a- or V2 receptors. In the case of the Gs-coupled V2 receptors, the cells are stably transfected with a further gene which codes for the promiscuous Gα16-Protein [Amatruda T T, Steele D A, Slepak V Z, Simon M I, Proceedings of the National Academy of Science USA 88, 5587-5591 (1991)]. The resulting vasopressin receptor test cells react to stimulation of the recombinantly expressed vasopressin receptors with an intracellular release of calcium ions, which can be quantified by the resulting aequorin luminescence with a suitable luminometer [Milligan G, Marshall F, Rees S, Trends in Pharmacological Sciences 17, 235-237 (1996)].
(§3) On the day before the text, the cells are plated out in culture medium (DMEM, 10% FCS, 2 mM glutamine, 10 mM HEPES) in 384-well microtitre plates and kept in a cell incubator (96% atmospheric humidity, 5% v/v CO2, 37° C.). On the test day, the culture medium is replaced by a Tyrode solution (140 mM NaCl, 5 mM KCl, 1 mM MgCl2, 2 mM CaCl2, 20 mM glucose, 20 mM HEPES) which in addition contains the cofactor coelenterazine (50 μM), and the microtitre plate is then incubated for a further 3-4 hours. The test substances in various concentrations are placed beforehand in the wells of the microtitre plate for 10 to 20 minutes, before the agonist [Arg^8]-vasopressin is added and the resulting light signal immediately measured in the luminometer. The IC50 values are calculated by means of the computer program GraphPad PRISM (Version 3.02).

human V2 receptor = molecular target: T2, human V2 receptor (Homo sapiens, UniProt P30518); test: Cellular in vitro test for determination of the vasopressin receptor activity (aequorin luminescence, CHO cells), human V2; assay type: cell-based; details: cell line transfected with the human V2 receptor, antagonism of [Arg8]-vasopressin, read-out: IC50 hV2
T2 construct: expressed in transfected cells; host or cells: CHO K1 (ATCC), constitutively expressing a modified aequorin and stably co-transfected with promiscuous G-alpha-16
From the text: as §1, §2, §3

T2 sequence (P30518 whole entry): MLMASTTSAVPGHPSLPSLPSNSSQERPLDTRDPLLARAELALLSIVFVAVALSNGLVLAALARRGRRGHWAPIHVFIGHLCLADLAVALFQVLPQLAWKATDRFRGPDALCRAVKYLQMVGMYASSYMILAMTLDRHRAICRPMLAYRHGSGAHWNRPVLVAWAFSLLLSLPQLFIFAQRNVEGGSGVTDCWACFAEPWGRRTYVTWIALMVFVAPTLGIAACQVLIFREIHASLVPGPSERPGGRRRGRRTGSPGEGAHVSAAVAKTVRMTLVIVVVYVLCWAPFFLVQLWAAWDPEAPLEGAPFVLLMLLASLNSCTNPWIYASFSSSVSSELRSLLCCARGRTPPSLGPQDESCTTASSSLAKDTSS
T1 sequence (P37288 whole entry): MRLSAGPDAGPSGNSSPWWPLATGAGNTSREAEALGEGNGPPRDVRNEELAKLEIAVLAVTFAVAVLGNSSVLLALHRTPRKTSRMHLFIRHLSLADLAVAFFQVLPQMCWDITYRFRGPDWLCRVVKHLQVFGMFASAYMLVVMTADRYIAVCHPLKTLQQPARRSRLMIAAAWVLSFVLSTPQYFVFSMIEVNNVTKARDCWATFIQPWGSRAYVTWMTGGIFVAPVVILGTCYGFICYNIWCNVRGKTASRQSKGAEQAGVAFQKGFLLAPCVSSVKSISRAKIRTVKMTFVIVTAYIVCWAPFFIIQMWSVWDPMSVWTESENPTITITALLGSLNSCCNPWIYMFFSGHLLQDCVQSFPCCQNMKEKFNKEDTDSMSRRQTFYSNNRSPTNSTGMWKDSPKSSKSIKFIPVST

Compound	IC50 (human V1a receptor)	IC50 (human V2 receptor)
COCCn1c(-c2ccc(Cl)cc2)nn(CC(=O)NC(C(=O)N(C)C)c2cccc(C(F)(F)F)c2)c1=O (stereo not shown) [Example 348]	4 nM	217 nM
O=C(Cn1nc(-c2ccc(Cl)cc2)n(CC(O)C(F)(F)F)c1=O)NCC(F)(F)c1cccc(C(F)(F)F)c1 (stereo not shown) [Example 364]	22 nM	8 nM
CC(C)(NC(=O)Cn1nc(-c2ccc(Cl)cc2)n(CC(F)(F)F)c1=O)c1cccc(C(F)(F)F)c1 [Example 386]	611 nM	23 nM
C=C(C)Cn1c(-c2ccc(Cl)cc2)nn(CC(=O)NC(C)(C)c2cccc(C(F)(F)F)c2)c1=O [Example 423, 2-[3-(4-chlorophenyl)-4-(2-methylprop-2-en-1-yl)-5-oxo-4,5-dihydro-1H-1,2,4-triazol-1-yl]-N-1-methyl-1-[3-(trifluoromethyl)phenyl]ethyl-acetamide]	157 nM	15 nM
CC(C)(NC(=O)Cn1nc(-c2ccc(Cl)cc2)n(Cc2cccc(F)c2)c1=O)c1cccc(C(F)(F)F)c1 [Example 433, 2-[3-(4-chlorophenyl)-4-(3-fluorobenzyl)-5-oxo-4,5-dihydro-1H-1,2,4-triazol-1-yl]-N-1-methyl-1-[3-(trifluoromethyl)phenyl]ethyl-acetamide]	199 nM	9 nM
CCC(=O)Cn1c(-c2ccc(Cl)cc2)nn(CC(=O)NC(C)(C)c2cccc(C(F)(F)F)c2)c1=O [Example 443, 2-[3-(4-chlorophenyl)-5-oxo-4-(2-oxobutyl)-4,5-dihydro-1H-1,2,4-triazol-1-yl]-N-1-methyl-1-[3-(trifluoromethyl)phenyl]ethyl-acetamide]	93 nM	23 nM
CC(C)(NC(=O)Cn1nc(-c2ccc(Cl)cc2)n(CCN2CCOCC2)c1=O)c1cccc(C(F)(F)F)c1 [Example 462, 2-[3-(4-chlorophenyl)-4-(2-morpholin-4-ylethyl)-5-oxo-4,5-dihydro-1H-1,2,4-triazol-1-yl]-N-{1-methyl-1-[3-(trifluoromethyl)phenyl]ethyl}-acetamide]	373 nM	46 nM
CC(C)(NC(=O)Cn1nc(-c2ccc(Cl)cc2)n(CC(=O)O)c1=O)c1cccc(C(F)(F)F)c1 [Example 467, 3-(4-chlorophenyl)-1-[2-(1-methyl-1-[3-(trifluoromethyl)phenyl]ethylamino)-2-oxoethyl]-5-oxo-1,5-dihydro-4H-1,2,4-triazol-4-yl-acetic acid]	439 nM	26 nM
CC(C)(NC(=O)Cn1nc(-c2ccc(Cl)cc2)n(Cc2cccc(C(=O)O)c2)c1=O)c1cccc(C(F)(F)F)c1 [Example 471, 3-(3-(4-chlorophenyl)-1-[2-(1-methyl-1-[3-(trifluoromethyl)phenyl]ethylamino)-2-oxoethyl]-5-oxo-1,5-dihydro-4H-1,2,4-triazol-4-ylmethyl)-benzoic acid]	39 nM	2 nM
CN(C)C(=O)c1cccc(Cn2c(-c3ccc(Cl)cc3)nn(CC(=O)NC(C)(C)c3cccc(C(F)(F)F)c3)c2=O)c1 [Example 475, 3-(3-(4-chlorophenyl)-1-[2-(1-methyl-1-[3-(trifluoromethyl)phenyl]ethylamino)-2-oxoethyl]-5-oxo-1,5-dihydro-4H-1,2,4-triazol-4-ylmethyl)-N,N-dimethylbenzamide]	328 nM	20 nM
CS(=O)(=O)c1ccccc1CNC(=O)Cn1nc(-c2ccc(Cl)cc2)n(Cc2ccccc2F)c1=O [Example 482, 2-[3-(4-chlorophenyl)-4-(2-fluorobenzyl)-5-oxo-4,5-dihydro-1H-1,2,4-triazol-1-yl]-N-[2-(methylsulphonyl)benzyl]-acetamide]	9 nM	250 nM
CC(C)(NC(=O)Cn1nc(-c2ccc(Cl)cc2)n(CC(=O)C(F)(F)F)c1=O)c1cccc(C(F)(F)F)c1 [Example 489, 2-[3-(4-chlorophenyl)-5-oxo-4-(3,3,3-trifluoro-2-oxopropyl)-4,5-dihydro-1H-1,2,4-triazol-1-yl]-N-{1-methyl-1-[3-(trifluoromethyl)phenyl]ethyl}-acetamide]	35 nM	2 nM
COCCn1c(-c2ccc(Cl)cc2)nn(CC(=O)NCC2(c3ccccc3F)CCCC2)c1=O [Example 494]	49 nM	257 nM
Cc1csc(-c2nn(CC(=O)NCc3cccc(C(F)(F)F)c3)c(=O)n2CC(C)C)c1Cl [Example 496, 2-[3-(3-chloro-4-methyl-2-thienyl)-4-isobutyl-5-oxo-4,5-dihydro-1H-1,2,4-triazol-1-yl]-N-[3-(trifluoromethyl)phenylmethyl]-acetamide]	166 nM	576 nM
O=C(Cn1cc(-c2ccc(Cl)s2)n(Cc2ccccc2F)c1=O)NCc1cccc(C(F)(F)F)c1 [Example 503]	25 nM	221 nM
NC(=O)C(NC(=O)Cn1nc(-c2ccc(Cl)cc2)n(CC(O)C(F)(F)F)c1=O)c1cccc(C(F)(F)F)c1 (stereo not shown) [Example 509, 2-[3-(4-chlorophenyl)-5-oxo-4-(3,3,3-trifluoro-2-hydroxypropyl)-4,5-dihydro-1H-1,2,4-triazol-1-yl]-N-{2-amino-2-oxo-1-[3-(trifluoromethyl)phenyl]ethyl}-acetamide]	8 nM	4 nM
O=C(Cn1nc(-c2ccc(Cl)cc2)n(CC(O)C(F)(F)F)c1=O)NC(C(=O)NC1CC1)c1cccc(C(F)(F)F)c1 (stereo not shown) [Example 510, 2-([3-(4-chlorophenyl)-5-oxo-4-(3,3,3-trifluoro-2-hydroxypropyl)-4,5-dihydro-1H-1,2,4-triazol-1-yl]acetylamino)-N-cyclopropyl-2-[3-(trifluoromethyl)phenyl]-acetamide]	4 nM	7 nM
O=C(Cn1nc(-c2ccc(Cl)cc2)n(CC(O)C(F)(F)F)c1=O)NC(C(=O)N1CCOCC1)c1cccc(C(F)(F)F)c1 (stereo not shown) [Example 511, 2-[3-(4-chlorophenyl)-5-oxo-4-(3,3,3-trifluoro-2-hydroxypropyl)-4,5-dihydro-1H-1,2,4-triazol-1-yl]-N-{2-morpholin-4-yl-2-oxo-1-[3-(trifluoromethyl)phenyl]ethyl}-acetamide]	4 nM	11 nM

More lines, now with the values ahead:

IC50 (human V1a receptor)	IC50 (human V2 receptor)	Compound
19 nM	9 nM	O=C(Cn1nc(-c2ccc(Cl)cc2)n(CC(O)C(F)(F)F)c1=O)NCCc1ccccc1OC(F)(F)F (stereo not shown) [Example 359]
19 nM	19 nM	CSc1ccccc1CNC(=O)Cn1nc(-c2ccc(Cl)cc2)n(Cc2ccccc2F)c1=O [Example 394, 2-[3-(4-chlorophenyl)-4-(2-fluorobenzyl)-5-oxo-4,5-dihydro-1H-1,2,4-triazol-1-yl]-N-[2-(methylthio)benzyl]-acetamide]
870 nM	26 nM	CC(=O)Cn1c(-c2ccc(Cl)cc2)nn(CC(=O)NCc2cccc(C(F)(F)F)c2)c1=O [Example 415]
32 nM	88 nM	C#CCn1c(-c2ccc(Cl)cc2)nn(CC(=O)NCCc2ccccc2C(F)(F)F)c1=O [Example 421]
58 nM	77 nM	CCOC(=O)Cn1c(-c2ccc(Cl)cc2)nn(CC(=O)NCCc2ccccc2C(F)(F)F)c1=O [Example 439]
43 nM	29 nM	C/C=C/n1c(-c2ccc(Cl)cc2)nn(CC(=O)NCc2cccc(C(F)(F)F)c2)c1=O [Example 457, 2-{3-(4-chlorophenyl)-5-oxo-4-[(1E)-prop-1-en-1-yl]-4,5-dihydro-1H-1,2,4-triazol-1-yl}-N-[3-(trifluoromethyl)benzyl]-acetamide]
1230 nM	94 nM	CC(C)(NC(=O)Cn1nc(-c2ccc(Cl)cc2)n(CC(N)=O)c1=O)c1cccc(C(F)(F)F)c1 [Example 476]
5 nM	336 nM	O=C(Cn1cc(-c2ccc(Cl)cc2)n(CC2CC2)c1=O)NCCc1ccccc1C(F)(F)F [Example 508]
